Legend:
[1] = clinical trials discontinued; cited from earlier work
[2] = test system: SK-BR3 cells; assay: Anti-proliferative effect / cytotoxicity on SK-BR-3 breast tumor cells (crystal violet, FIG. 4); type: cell-based, human
Procedure: SK-BR-3 human breast carcinoma cells were from The American Type Culture Collection (Rockville, Md.). […] SK-BR-3 cells were cultured in high glucose DMEM:Ham's F-12 (50:50) supplemented with 10% heat-inactivated fetal bovine serum and 2 mM 1-glutamine (all from GIBCO/BRL, Grand Island, N.Y.).
Cells were plated at the following densities in 96-well microtiter culture plates: 2×10^4 per well for SK-BR-3; 10^4 per well for HMEC, SAEC and NHEK; and 3.5×10^4 per well for human hepatocytes (pre-plated on collagen-coated plates by In Vitro Technologies) and allowed to adhere overnight in the incubator (37° C., 5% CO2). […] After a 3 day incubation, the media were removed, the cell monolayers washed once with PBS and stained with crystal violet dye (0.5% crystal violet, 20% methanol).
For all experiments, after removal of the crystal violet dye, plates were allowed to air-dry overnight. The dye was then eluted with 0.1 M sodium citrate:ethanol (50:50), pH 4.2 and the plates read in an SLT 340 ATC plate-reader at a wavelength of 540 nm. Each treatment group consisted of 4 replicates and the data are represented as mean O.D.540+/− standard error or relative to cell proliferation as compared to untreated control cells (mean+/−s.e.).

Compound	adverse effects in clinical trials [1]	cell growth inhibition [2]
COc1cc2cc(c1Cl)N(C)C(=O)C[C@H](OC(=O)[C@H](C)N(C)C(C)=O)[C@]1(C)O[C@H]1[C@H](C)[C@@H]1C[C@@](O)(NC(=O)O1)[C@H](OC)/C=C/C=C(\C)C2 [maytansine]	peripheral neuropathy	–
RITUXAN®: control, unrelated monoclonal antibody RITUXAN®	–	did not inhibit cell growth
